Results taken from patent US20200383969A1, “RIMEGEPANT FOR CGRP RELATED DISORDERS” (Biohaven Pharmaceutical Holding Company Ltd., priority 2018, published 2020).

What was measured:
[1] = Study 201 (BHV3000-201), open label long-term safety study, rimegepant 75 mg, interim analysis; assay type: in vivo, human
From the text: Clinical Trial-BHV3000-201: Open Label Safety Study in Acute Treatment of Migraine (ClinicalTrials.gov Identifier: NCT 03266588) • Study Type: Interventional (Clinical Trial) • Estimated Enrollment: 2000 participants • Intervention Model: Single Group Assignment • Masking: None (Open Label) • Primary Purpose: Treatment • Official Title: A Multicenter, Open Label Long-Term Safety Study of BHV3000 in the Acute Treatment of Migraine • Actual Study Start Date: Aug. 30, 2017 • Estimated Primary Completion Date: July 2019 • Estimated Study Completion Date: July 2019 • 1. To assess the safety and tolerability of rimegepant (BHV-3000) by measuring the frequency and severity of adverse events and discontinuations due to adverse events [Time Frame: 52 weeks] Number of subjects with treatment-emergent adverse events as assessed through laboratory tests, ECGs, physical exam findings (safety and tolerability) • 1. ALT or […] with total bilirubin>2×ULN [Time Frame: 52 weeks] elevated liver function tests • 2. hepatic related adverse events and hepatic related adverse events that lead to discontinuation [Time Frame: 52 weeks] adverse events related to liver Results from the clinical trial described in Example 10 are summarized as follows. […] Patients were allowed to treat migraine attacks of all severities (mild to severe) up to once daily for a full year. The initial results for hepatic safety and tolerability of rimegepant 75 mg in study participants is based upon review of both adverse events and regularly scheduled liver function tests. Interim hepatic data were reviewed by an external and independent panel of liver experts. […] In the aggregate, it was noted that compared to migraine trials with drugs other than rimegepant, there was a very low incidence of overall elevations of liver function test abnormalities in rimegepant treated patients (1.0% incidence of serum ALT or AST>3× ULN). Subjects will continue to participate in Study 201 with additional data analyses to be submitted in the NDA and required 120-day safety updates. In addition to the interim safety analysis, data from subjects was assessed to determine reductions in the number of headache days per month.

[2] = Study 302 (BHV3000-302), Phase 3, rimegepant 75 mg tablet vs placebo, acute treatment of migraine; assay type: in vivo, human
From the text: Clinical Trial—BHV3000-302 : Phase 3: Double-Blind, Randomized, Placebo-Controlled, Safety and Efficacy Trial of BHV-3000 (Rimegepant) for the Acute Treatment of Migraine (ClinicalTrials.gov Identifier: NCT03237845) • Study Type: Interventional (Clinical Trial) • Actual Enrollment: 1503 participants • Allocation: Randomized • Intervention Model: Parallel Assignment • Intervention Model Description: Double-blind to Sponsor, Investigator and Subject • Masking: Triple (Participant, Care Provider, Investigator) • Masking Description: Double-blind to Sponsor, Investigator and Subject • Primary Purpose: Treatment • Official Title: BHV3000-302: Phase 3: Double-Blind, Randomized, Placebo-Controlled, Safety and Efficacy Trial of BHV-3000 (Rimegepant) for the Acute Treatment of Migraine • Actual Study Start Date : Jul. 26, 2017 • Primary Completion Date : Jan. 25, 2018 • Study Completion Date : Jan. 31, 2018 • 1. Pain Freedom of rimegepant (75 mg tablet) compared with placebo in the acute treatment of migraine will be measured using the number of evaluable subjects that report no pain at 2 hours post-dose. [Time Frame: Two hours post dose] • Pain will be measured on a 4 point Likert scale (0=none, 1=mild, 2=moderate, 3=severe) • 2. Freedom from the most bothersome symptom (MBS) of rimegepant (75 mg tablet) compared with placebo will be measured using the number of evaluable subjects that report the absence of their MBS at 2 hours post-dose. [Time Frame: Two hours post dose] • The MBS (nausea, phonophobia or photophobia) will measured using a binary scale (0=absent, 1=present). • 1. […] [Time Frame: 2 hours -24 hours post-dose] • Sustained Pain Freedom as measured by a 4 point numeric rating scale (None, Mild, Moderate, Severe) • 2. Rimegepant (75 mg tablet) compared to placebo by tabulating the number of subjects that report the absence of photophobia at 2 hours post-dose in the subset of subjects that reported the presence of photophobia at headache baseline. [Time Frame: 2 hours post-dose] • Freedom from Photophobia • 3. Rimegepant (75 mg tablet) compared to placebo by tabulating the number of subjects that report the absence of phonophobia at 2 hours post-dose in the subset of subjects that reported the presence of phonophobia at headache baseline. [Time Frame: 2 hours post-dose] • Freedom from Phonophobia • 4. To measure rimegepant (75 mg tablet) compared to placebo on Pain Relief, at 2 hours post-dose, that report a pain level of moderate or severe at baseline and then report a pain level of none or mild. [Time Frame: 2 hours post-dose] • Pain Relief as measured by a 4 point numeric rating scale (None, Mild, Moderate, Severe) • 5. Freedom from Nausea will by tabulating the number of subjects that report the absence of nausea at 2 hours post-dose in the subset of subjects that reported the presence of nausea at headache baseline. [Time Frame: 2 hours post-dose] • Freedom from Nausea • 6. To measure rimegepant (75 mg tablet) compared to placebo on the probability of requiring rescue medication will be assessed using the number of subjects that take rescue medication within […] administration of study medication (BHV3000 or placebo). [Time Frame: up to 24 hours post-dose] • Requiring Rescue Medication • 7. […] [Time Frame: 2 hours-48 hours post-dose] • Sustained Pain Freedom as measured by a 4 point numeric rating scale (None, Mild, Moderate, Severe) • 8. […] [Time Frame: 2 hours-24 hours post-dose] • Sustained Pain Relief as measured by a 4 point numeric rating scale (None, Mild, Moderate, Severe) • 9. […] [Time Frame: 2 hours-48 hours post-dose] • Sustained Pain Relief as measured by a 4 point numeric rating scale (None, Mild, Moderate, Severe) • 10. Rimegepant (75 mg tablet) relative to placebo on the proportion of subjects able to function normally, at 2 hours, using the number of subjects that self-report as “normal” on the functional disability scale. [Time Frame: 2 hours post-dose] • Functional Disability Score • 11. […]

For `N[C@@H]1c2cccnc2[C@H](OC(=O)N2CCC(n3c(=O)[nH]c4ncccc43)CC2)CC[C@H]1c1cccc(F)c1F` [Rimegepant, [(5S,6S,9R)-5-amino-6-(2,3-difluorophenyl)-6,7,8,9-tetrahydro-5H-cyclohepta[b]pyridin-9-yl] 4-(2-oxo-3H-imidazo[4,5-b]pyridin-1-yl)piperidine-1-carboxylate], the “>=30.0% decrease in migraines (headache days) per month, percent of subjects” value ([1]; Study 201, Overall, n 1731, treatment vs observation phase) was 30.2%, the “Onset of reductions in the mean number of headache days per month” value ([1]; Study 201, continued in subsequent months) was “as early as the first month” and the “Hy's Law cases” value ([1]; Study 201 interim) was “no Hy's Law cases”. The “Incidence of serum ALT or AST>3× ULN” value ([1]; Study 201 interim) was 1.0%, the “Safety and tolerability of long-term dosing” value ([1]; Study 201 interim analysis, 75 mg up to once daily) was “consistent with the profile observed in phase 1-3 studies to date” and the Liver safety signal ([1]; Study 201 interim, including near-daily dosing (≥15 doses/month)) was “no liver safety signal detected”. For the same compound, the “Liver cases assessed as probably related to study drug” value ([1]; Study 201 interim, independent panel of liver experts) was “no liver cases”, the “SAEs related to the study drug” value [2] was “No SAEs” and the “AE nausea, incidence” value ([2]; 75 mg tablet) was 1.8%. The “AE nausea, n/N” value ([2]; 75 mg tablet) was 10/543, the “AE urinary tract infection, incidence” value ([2]; 75 mg tablet) was 1.5% and the “AE urinary tract infection, n/N” value ([2]; 75 mg tablet) was 8/543. For the same compound, the “Bilirubin elevations greater than 2 times ULN” value ([2]; 75 mg tablet) was “no bilirubin elevations”, the “Serum ALT or AST > ULN, n/N” value ([2]; 75 mg tablet) was 13/543 and the “Serum ALT or AST > ULN, subjects” value ([2]; 75 mg tablet) was 2.4%. For the same compound, the “Transaminase level greater than 3 times ULN” value ([2]; 75 mg tablet) was “No subject”, the “Normal function at 2 hours (functional disability) vs placebo” value ([2]; P<0.0001) was “greater proportion” and the “Serious AEs, number of subjects” value ([2]; back pain) was 1. For the same compound, the “Sustained pain relief from 2 through 48 hours postdose vs placebo” value ([2]; single dose, no rescue medication, P<0.0001) was “superiority versus placebo” and the “Sustained pain freedom from 2 through 48 hours postdose vs placebo” value ([2]; single dose, no rescue medication, P=0.0181) was “superiority versus placebo”.
